Experiments:
[1] = test system: production of TNF by monocytes activated with bacterial lipopolysaccharide (LPS); assay: Lipopolysaccharide-activated monocyte TNF production assay (whole blood monocyte assay, LPS induced TNF release); format: cell-based; conditions: Homo sapiens
Procedure: Lipopolysaccharide-Activated Monocyte TNF Production Assay
Test compounds were evaluated in vitro for the ability to inhibit the production of TNF by monocytes activated with bacterial lipopolysaccharide (LPS). Fresh residual source leukocytes (a byproduct of plateletpheresis) were obtained from a local blood bank, and peripheral blood mononuclear cells (PBMCs) were isolated by density gradient centrifugation on Ficol-Paque Plus (Pharmacia). PBMCs were suspended at 2×10^6/mL in DMEM supplemented to contain 2% FCS, 10 mM, 0.3 mg/mL […], 100 U/mL penicillin G and […] streptomycin sulfate (complete media). Cells were plated into Falcon flat bottom, 96 well culture plates (200 μL/well) and cultured overnight at 37° C. and 6% CO2. Non-adherent cells were removed by washing with 200 μl/well of fresh medium. Wells containing adherent cells (˜70% monocytes) were replenished with 100 μL of fresh medium.
Preparation of Test Compound Stock Solutions
Test compounds were dissolved in […]. Compound stock solutions were prepared to an initial concentration of […]. Stocks were diluted initially to 20-200 μM in complete media. Nine two-fold serial dilutions of each compound were then prepared in complete medium.
Treatment of Cells with Test Compounds and Activation of TNF Production with Lipopolysaccharide
One hundred microliters of each test compound dilution were added to microtiter wells containing adherent monocytes and 100 μL complete medium. Monocytes were cultured with test compounds for 60 min at which time 25 μL of complete medium containing 30 ng/mL lipopolysaccharide from E. coli K532 were added to each well. Cells were cultured an additional 4 hrs. Culture supernatants were then removed and TNF presence in the supernatants was quantified using an ELISA.
Flat bottom, 96 well Corning High Binding ELISA plates were coated overnight (4° C.) with 150 μL/well of 3 μg/mL murine anti-human TNF-α MAb (R&D Systems #MAB210). Wells were then blocked for 1 h at room temperature with 200 μL/well of CaCl2-free ELISA buffer supplemented to contain 20 mg/mL BSA (standard ELISA buffer: […], 150 mM NaCl, 2 mM CaCl2, 0.15 mM thimerosal, pH 7.4). Plates were washed and replenished with 100 μL of test supernatants (diluted 1:3) or standards. Standards consisted of eleven 1.5-fold serial dilutions from a stock of 1 ng/mL recombinant human TNF (R&D Systems). Plates were incubated at room temperature for 1 h on orbital shaker (300 rpm), washed and replenished with 100 μL/well of 0.5 μg/mL goat anti-human TNF-α (R&D systems #AB-210-NA) biotinylated at a 4:1 ratio. Plates were incubated for 40 min, washed and replenished with 100 μL/well of alkaline phosphatase-conjugated streptavidin (Jackson ImmunoResearch #016-050-084) at 0.02 μg/mL. Plates were incubated 30 min, washed and replenished with 200 μL/well of 1 mg/mL of p-nitrophenyl phosphate. After 30 min, plates were read at 405 nm on a Vmax plate reader.

[2] = AA2734_IC50_IP (Table 4, assay code not explained); conditions: internal assay code
[3] = AA5225_IC50_IP (Table 4, assay code not explained); conditions: internal assay code

| SMILES | IC50 [1] | IC50 [2] | IC50 [3] |
| --- | --- | --- | --- |
| Cc1ccc(C(=O)Nc2ccon2)cc1-c1ccc2c(NC(C)C)nncc2c1 [Example 13, N-3-isoxazolyl-4-methyl-3-(1-((1-methylethyl)amino)-6-phthalazinyl)benzamide] | ≤ 10 nM | – | – |
| Cc1ccc(C(=O)Nc2ccnn2C)cc1-c1ccc2c(N3CCOC[C@@H]3C)nncc2c1 [Example 15, 4-methyl-3-(1-((3S)-3-methyl-4-morpholinyl)-6-phthalazinyl)-N-(1-methyl-1H-pyrazol-5-yl)benzamide] | ≤ 10 nM | – | – |
| Cc1ccc(C(=O)NCC(F)(F)F)cc1-c1ccc2c(NC(C)C)nncc2c1 [Example 29, 4-methyl-3-(1-((1-methylethyl)amino)-6-phthalazinyl)-N-(2,2,2-trifluoroethyl)benzamide] | ≤ 10 nM | – | – |
| Cc1ccc(C(N)=O)cc1-c1ccc2c(N3CCC[C@H]3C(C)(C)C)nncc2c1 [Example 35, 3-(1-((2S)-2-(1,1-dimethylethyl)-1-pyrrolidinyl)-6-phthalazinyl)-4-methylbenzamide] | ≤ 10 nM | – | – |
| Cc1ccc(C(=O)NC(C)C)cc1-c1ccc2c(N3CCC[C@H]3C)nncc2c1 [Example 37, 4-methyl-N-(1-methylethyl)-3-(1-((2R)-2-methyl-1-pyrrolidinyl)-6-phthalazinyl)benzamide] | ≤ 10 nM | – | – |
| Cc1ccc(C(=O)NC(C)C)cc1-c1ccc2c(C(C)C)nncc2c1 [Example 39, 4-methyl-N-(1-methylethyl)-3-(1-(1-methylethyl)-6-phthalazinyl)benzamide] | ≤ 10 nM | – | – |
| Cc1ccc(C(=O)NC(C)C)cc1-c1ccc2c(O[C@H](C)C(F)(F)F)nncc2c1 [Example 41, 4-methyl-N-(1-methylethyl)-3-(1-(((1R)-2,2,2-trifluoro-1-methylethyl)oxy)-6-phthalazinyl)benzamide] | ≤ 100 nM | – | – |
| Cc1ccc(C(N)=O)cc1-c1ccc2c(O[C@H](C)C(F)(F)F)nncc2c1 [Example 43, 4-methyl-3-(1-(((1R)-2,2,2-trifluoro-1-methylethyl)oxy)-6-phthalazinyl)benzamide] | ≤ 100 nM | – | – |
| CCC(C)c1nncc2cc(-c3cc(C(N)=O)ccc3C)ccc12 (stereo not drawn) [Example 51, 4-methyl-3-(1-(1-methylpropyl)-6-phthalazinyl)benzamide] | ≤ 10 nM | – | – |
| Cc1ccc(C(=O)NC2(C)CC2)cc1-c1ccc2c(N3CCC[C@@H]3C)nncc2c1 [Example 66, 4-methyl-N-(1-methylcyclopropyl)-3-(1-((2S)-2-methyl-1-pyrrolidinyl)-6-phthalazinyl)benzamide] | ≤ 10 nM | – | – |
| Cc1ccc(C(=O)Nc2ccn(C)n2)cc1-c1ccc2c(O[C@@H](C)C(F)(F)F)nncc2c1 [Example 72, 4-methyl-N-(1-methyl-1H-pyrazol-3-yl)-3-(1-(((1S)-2,2,2-trifluoro-1-methylethyl)oxy)-6-phthalazinyl)benzamide] | ≤ 10 nM | – | – |
| Cc1ccc(C(=O)NC2CC2)cc1-c1ccc2c(-c3cc(F)c(S(C)(=O)=O)cc3C)nncc2c1 [Example 223, N-cyclopropyl-3-(1-(5-fluoro-2-methyl-4-(methylsulfonyl)phenyl)-6-phthalazinyl)-4-methylbenzamide] | ≤ 10 nM | 1.22 nM | 0.854 nM |
| Cc1ccc(C(=O)NC2CC2)cc1-c1ccc2c([C@H](C)C(F)(F)F)nncc2c1 [Example 227b, N-cyclopropyl-4-methyl-3-(1-((1S)-2,2,2-trifluoro-1-methylethyl)-6-phthalazinyl)benzamide] | ≤ 10 nM | 0.33 nM | 1.61 nM |
| Cc1ccc(N)cc1-c1ccc2c(O[C@H](C)C(F)(F)F)nncc2c1 [Example 238, 4-methyl-3-(1-(((1R)-2,2,2-trifluoro-1-methylethyl)oxy)-6-phthalazinyl)aniline] | ≤ 250 nM | – | – |

Source: US8101612B2, “Phthalazine compounds and methods of use” (Amgen Inc., priority 2006, dated 2012)
